Experimental data from publication PMC10096054, “A New Application of Spin and Fluorescence Double-Sensor Molecules” (Molecules, 2023).
Read-outs that look alike come from different tables or passages of the source.

Molecular target: T1, human serum albumin (HSA) (Homo sapiens, UniProt P02768)
T1 construct: gene ALB; commercial human serum albumin purchased from Merck
Test: fluorescence polarization titration, nonlinear […] fit
Assay type: binding

T1 sequence (P02768 25-609): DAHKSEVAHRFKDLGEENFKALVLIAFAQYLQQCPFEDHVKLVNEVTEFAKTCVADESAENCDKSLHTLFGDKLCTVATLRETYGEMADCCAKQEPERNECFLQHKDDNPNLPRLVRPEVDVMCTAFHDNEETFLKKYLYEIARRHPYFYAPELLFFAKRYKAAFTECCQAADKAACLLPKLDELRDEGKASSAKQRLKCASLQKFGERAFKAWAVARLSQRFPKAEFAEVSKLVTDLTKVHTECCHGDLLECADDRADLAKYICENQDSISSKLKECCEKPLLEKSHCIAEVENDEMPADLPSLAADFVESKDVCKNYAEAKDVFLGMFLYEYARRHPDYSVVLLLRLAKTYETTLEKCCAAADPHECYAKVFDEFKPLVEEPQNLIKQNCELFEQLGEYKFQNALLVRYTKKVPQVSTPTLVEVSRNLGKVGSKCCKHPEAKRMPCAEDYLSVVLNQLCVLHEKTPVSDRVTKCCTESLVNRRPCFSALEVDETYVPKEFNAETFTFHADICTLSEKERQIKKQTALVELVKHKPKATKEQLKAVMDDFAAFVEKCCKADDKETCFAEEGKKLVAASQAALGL

SMILES | Kd | Kd (read-out: logK (1-HSA, Absence of 2) (converted))
CC1(C)C(CO)=C(c2ccc3ccc4cccc5ccc2c3c45)C(C)(C)N1[O] [compound 1, 3-hydroxymethyl-1-oxyl-4-(pyren-1-yl)-2,2,5,5-tetramethyl-2,5-dihydro-1H-pyrrole radical] | 1410 nM | –
CON1C(C)(C)C(CO)=C(c2ccc3ccc4cccc5ccc2c3c45)C1(C)C [compound 6, (1-methoxy-2,2,5,5-tetramethyl-4-(pyren-1-yl)-2,5-dihydro-1H-pyrrol-3-yl)methanol] | – | 331 nM
